# According to EP0103381B1, “Substituted anthra(1,9-cd)pyrazol-6(2H)-ones” (WARNER-LAMBERT COMPANY, priority 1982, dated 1984):
# Like-named read-outs stand apart in the source and are kept apart here.
# Tests used:
# Bacillus subtilis = test: agar plate paper-disc inhibition zone screening; assay type: cell-based; conditions: read-out: Inhibition Zone Diameter mm (Dose mg/ml) B. Subtilis; for zone of inhibition at 3000 µg/mL: Dose 3.0 mg/ml
# Method in brief: (§1)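 Inoculum: saline suspension, 20-35% transmittancy, in molten agar. Discs 12.7 mm, compound 3,000/1,000/500/100/10 mcg/ml, solvent <10%. 37°C, 18-20 h; zone diameter in mm.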
# Escherichia coli = test: agar plate paper-disc inhibition zone screening; assay type: cell-based; conditions: read-out: Inhibition Zone Diameter mm (Dose mg/ml) E. Coli; for zone of inhibition at 500 µg/mL: Dose 0.5 mg/ml; for zone of inhibition at 3000 µg/mL: Dose 3.0 mg/ml
# Method in brief: as §1
# Aerobacter aerogenes = test: agar plate paper-disc inhibition zone screening; assay type: cell-based; conditions: Klebsiella aerogenes, read-out: Inhibition Zone Diameter mm (Dose mg/ml) A. Aerogenes; for zone of inhibition at 1000 µg/mL: Dose 1.0 mg/ml; for zone of inhibition at 3000 µg/mL: Dose 3.0 mg/ml
# Method in brief: as §1
# Streptococcus faecalis = test: agar plate paper-disc inhibition zone screening; assay type: cell-based; conditions: Enterococcus faecalis, read-out: Inhibition Zone Diameter mm (Dose mg/ml) S. Faecalis; for zone of inhibition at 3000 µg/mL: Dose 3.0 mg/ml
# Method in brief: as §1
# [1] = tested on: lymphocytic leukemia P388; test: in vivo lymphocytic leukemia P388 test; parameters: species or system mice; conditions: Mus musculus, P388, ip, 720 h, two single doses four days apart, read-out: T/C × 100 (Percent); for response vs control in vivo at 100 mg/kg: P388, Dose 100 mg/kg intraperitoneally; for response vs control in vivo at 6.25 mg/kg: P388, Dose 6.25 mg/kg intraperitoneally; for response vs control in vivo at 12.5 mg/kg: P388, Dose 12.5 mg/kg intraperitoneally; for response vs control in vivo at 25 mg/kg: P388, Dose 25 mg/kg intraperitoneally; for response vs control in vivo at 50 mg/kg: P388, Dose 50 mg/kg intraperitoneally
# Method in brief: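 CD2F mice (6–7 per group) were inoculated intraperitoneally with P388 leukemia ascitic cells. Compounds were then given i.p. as two doses four days apart at various levels. Survival over 30 days was expressed as treated/control time ratio, efficacy criterion T/C×100 >125%.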
# L1210 Leukemia = test: L1210 leukemia in vitro; assay type: cell-based; conditions: Mus musculus, procedure of Europ. J. Cancer 17, 671 (1981), read-out: L1210 Leukemia In Vitro ID50 Molar
# Penicillium avellaneum = test: agar plate paper-disc inhibition zone screening; assay type: cell-based; conditions: Hamigera avellanea; Dose 3.0 mg/ml; read-out: Inhibition Zone Diameter mm (Dose mg/ml) P. Avellaneum
# Method in brief: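 Mycelia and spores from a six-day 28°C agar culture, suspended in saline with 0.05% Tween 80 at 20% transmittancy, were seeded into molten agar trays. Compounds at 3,000, 1,000, 500, 100 and 10 mcg/ml (solvent <10%) were applied on 12.7 mm paper discs. After at least 20-24 h incubation, inhibition zone diameter was measured in mm.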
# [2] = tested on: HCT-8 (human colon adenocarcinoma) cells; test: in vitro activity against human colon adenocarcinoma (HCT-8), cell count; assay type: cell-based
# Method in brief: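 HCT-8 cells seeded at ~30,000 cells/ml in RPMI 1640 + 10% FCS, grown 48 hrs at 37°C, then exposed to compound 60-65 hrs. Lysed cells counted by Coulter counter; activity as percent of controls, reported as ID50 (molar quantity killing 50% of cells).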
SMILES,IC50 (L1210 Leukemia) [µM],zone of inhibition at 100 µg/mL (Bacillus subtilis; Dose 0.1 mg/ml) [mm],zone of inhibition at 100 µg/mL (Escherichia coli; Dose 0.1 mg/ml) [mm],zone of inhibition at 500 µg/mL (Aerobacter aerogenes; Dose 0.5 mg/ml) [mm],zone of inhibition at 3000 µg/mL (Streptococcus faecalis) [mm],response vs control in vivo at 100 mg/kg [1] [%],zone of inhibition at 3000 µg/mL (Penicillium avellaneum) [mm],zone of inhibition at 3000 µg/mL (Bacillus subtilis) [mm],zone of inhibition at 500 µg/mL (Escherichia coli) [mm],zone of inhibition at 1000 µg/mL (Aerobacter aerogenes) [mm],response vs control in vivo at 6.25 mg/kg [1] [%],response vs control in vivo at 12.5 mg/kg [1] [%],response vs control in vivo at 25 mg/kg [1] [%],response vs control in vivo at 50 mg/kg [1] [%],zone of inhibition at 3000 µg/mL (Escherichia coli) [mm],"IC50 ([2]; Homo sapiens, HCT-8 cells, 60-65 hrs with compound, molar quantity of drug required to kill 50% of the tumor cells, read-out: ID50 Molar) [µM]",zone of inhibition at 500 µg/mL (Bacillus subtilis; Dose 0.5 mg/ml) [mm],zone of inhibition at 3000 µg/mL (Aerobacter aerogenes) [mm],zone of inhibition at 500 µg/mL (Streptococcus faecalis; Dose 0.5 mg/ml) [mm],"IC50 ([2]; HCT-8 human colon adenocarcinoma cells, 60-65 hrs incubation with compound, Coulter counter cell count as percentage of controls, read-out: ID50 (the source's name)) [µM]"
"O=C1c2ccccc2-c2nn(CCNCCO)c3ccc(Cl)c1c23 [H; Cl*; (CH2)2NH(CH2)2OH, 5-chloro-2-[2-[(2-hydroxyethyl)amino]ethyl]anthra[1,9-cd]pyrazol-6(2H)-one]",0.39,16,16,18,15,124,0,,,,,,,,,,,,,
"CCN(CC)CCNc1ccc2c3c(nn2CCN(CC)CC)-c2c(O)ccc(O)c2C(=O)c13 [Example 29, 2-[2-(Diethylamino)ethyl]-5-[[2-(diethylamino)ethyl]amino]-7,10-dihydroxyanthra[1,9-cd]pyrazol-6(2H)-one]",,,,,,180,16,,14,,,,140,,,0.64,14,0,14,
"CN(C)CCCn1nc2c3c(c(NCCNCCO)ccc31)C(=O)c1c(O)ccc(O)c1-2 [Example 46, 2-[3-(Dimethylamino)propyl]-7,10-dihydroxy-5-[[2-[(2-hydroxyethyl)amino]ethyl]amino]anthra[1,9-cd]pyrazol-6(2H)-one]",,,,,0,,0,0,,,185,218,,,0,,,16,,0.092

# Now from value to compound, other results behind:
IC50 (L1210 Leukemia) [µM],SMILES,zone of inhibition at 100 µg/mL (Bacillus subtilis; Dose 0.1 mg/ml) [mm],zone of inhibition at 100 µg/mL (Escherichia coli; Dose 0.1 mg/ml) [mm],zone of inhibition at 500 µg/mL (Aerobacter aerogenes; Dose 0.5 mg/ml) [mm],zone of inhibition at 3000 µg/mL (Streptococcus faecalis) [mm],response vs control in vivo at 100 mg/kg [1] [%],zone of inhibition at 3000 µg/mL (Penicillium avellaneum) [mm],zone of inhibition at 3000 µg/mL (Bacillus subtilis) [mm],zone of inhibition at 500 µg/mL (Escherichia coli) [mm],zone of inhibition at 1000 µg/mL (Aerobacter aerogenes) [mm],response vs control in vivo at 6.25 mg/kg [1] [%],response vs control in vivo at 12.5 mg/kg [1] [%],response vs control in vivo at 25 mg/kg [1] [%],response vs control in vivo at 50 mg/kg [1] [%],zone of inhibition at 3000 µg/mL (Escherichia coli) [mm],"IC50 ([2]; Homo sapiens, HCT-8 cells, 60-65 hrs with compound, molar quantity of drug required to kill 50% of the tumor cells, read-out: ID50 Molar) [µM]",zone of inhibition at 500 µg/mL (Bacillus subtilis; Dose 0.5 mg/ml) [mm],zone of inhibition at 3000 µg/mL (Aerobacter aerogenes) [mm],zone of inhibition at 500 µg/mL (Streptococcus faecalis; Dose 0.5 mg/ml) [mm],"IC50 ([2]; HCT-8 human colon adenocarcinoma cells, 60-65 hrs incubation with compound, Coulter counter cell count as percentage of controls, read-out: ID50 (the source's name)) [µM]"
0.66,"O=C1c2c(O)ccc(O)c2-c2nn(CCNCCO)c3ccc(Cl)c1c23 [7,10-(OH)2; Cl*; (CH2)2NH(CH2)2OH, 5-Chloro-7,10-dihydroxy-2-[2-[(2-hydroxyethyl)amino]ethyl]anthra[1,9-cd]pyrazol-6(2H)-one]",,,,0,,0,0,14,14,131,138,143,161,,,,,,
0.63,"NCCn1nc2c3c(c(Cl)ccc31)C(=O)c1c(O)ccc(O)c1-2 [7,10-(OH)2; Cl*; (CH2)2NH2, 2-(2-Aminoethyl)-5-chloro-7,10-dihydroxyanthra[1,9-cd]pyrazol-6(2H)-one]",,,,0,,0,0,,14,,,,125,15,,,,,
